Source: patent US4386103A, “Dichloroamino acid derivatives useful as potent germicidal and fungicidal agents” (Merck & Co., Inc., priority 1981, dated 1983)

Experiments:
Format in all cases: cell-based
Aspergillus fumigatus = test: Contact fungicidal screen, Aspergillus fumigatus; settings: 0.1M NaOAc pH 4.6
Method: (§1) The organisms used in the Contact Fungicidal Screen are a dermatophyte, trychophyton mentagrophytes, frequently associated with athlete's foot; a yeast, Candida albican, causative agent of thrush and vaginitis; a phycomycete, Rhizopus oryzae, commonly known as black bread mold; an ascomycete, Aspergillus fumagatis, found in chicken droppings and causing lung infections; and another dermatophyte, Microsporum canis, which causes ringworm. These organisms are maintained as stock cultures at 4° C. on agar […] of the following composition: dextrose 2%, Neopeptone (Difco) 1%, agar 2%. Fluid medium of the same nutrient composition (without agar) was used to test the viability of the organisms after exposure to the fungicide. This medium is also known as Sabouraud's medium. Sabouraud's agar plate cultures of Aspergillus fumigatus, Microsporum canis, and a different culture of Trychophyton mentagrophytes are prepared by planting an inoculum at the center of an agar plate and incubating at 25°-30° C. for seven to ten days. The mycelial mats are removed from the surface of the agar and prepared in the same manner as the Rhizopus culture. The compounds are weighed into heat sterilized 100 ml volumetric flasks and immediately before screening dissolved in 0.1 M NaOAc pH 4.6 buffer (test solutions). The Aspergillus, Candida, Microsporum and Rhizopus species are screened in a slightly different manner. Basically, the procedure for the Contact Germicidal Efficiency Screen is utilized. After the test solutions are made up, 5 ml aliquots are pipetted into heat sterilized 25 ml glass stoppered erlenmeyer flasks. The screen is initiated when 0.5 ml of the 5×10^6 cell (spore) per ml suspension is added to the flask containing 5 ml of the test solution. […] The subculture tubes are incubated at 25°-30° C. for ten days with daily observation for mycelial growth. The earliest subculture time at which no growth is present is considered the endpoint and is recorded as the sterilization time. To insure the viability of the culture, a 0.5 ml aliquot of the 5×10^6 cells (spores) per ml suspension is transferred to 5 ml of the pH 4.6 buffer. A loopful of the inoculated buffer is then subcultured to 7 ml of fluid Sabouraud's medium and incubated at 25°-30° C. for ten days. To insure that the dilution of the test solution into the subculture medium does stop the action, a loopful of the test solution and a loopful of the inoculated buffer are transferred into the same subculture tube. This tube is also incubated at 25°-30° C. for ten days.

Bacillus subtilis = test: Contact germicidal screen, Bacillus subtilis ATCC No. 60511
Method: (§2) The organisms used in the contact germicidal screen are all maintained as stock cultures on nutrient agar […] 4° C. They are transferred and biochemically diagnosed monthly. The five organisms used are: The media used are: […] Overnight cultures of the test organisms are grown in tryptose phosphate broth. After 15-16 hours, the cultures are centrifuged at […] for 15 minutes, and the supernatant replaced with fresh warm (37° C.) media. After two hours of incubation, the absorbance of the culture at 650 nm is determined and diluted with nutrient broth to 1×10^7 colony forming units per ml (using a previous determined standard curve: colony forming units/ml vs. absorbance at 650). The diluted cultures are maintained at 4°-8° C. throughout the screen. The compounds are weighed into sterile 100 ml volumetric flasks, and immediately before screening dissolved in one of the following buffers: 0.1 M NaOAc pH 4.6 or 0.1 M NaH2 PO4 pH 7.0. If solubility poses a problem, 10-30% methanol is used to effect solution. Two denaturing agents are also tested: […] Horse Serum restored with 100 ml distilled water and 10% Trition×100. When used, 2.5 ml of the denaturing agent is mixed with 2.5 ml of double strength test solution thirty minutes before the bacterial suspension is added. The screen is initiated when 0.2 ml of the bacterial suspension is added to 5.0 ml of the test solution contained in a sterile 25 ml glass stoppered flask. At intervals of 0.5, 2.5, 5.0, 10.0 and 15.0 minutes, a loopful of the inoculated test solution is subcultured into 5 ml of sterile nutrient broth and mixed with a vortex, the high dilution serving to stop the action of the compound. All of the subculture tubes are incubated at 37° C. and checked for signs of growth by turbidity at 1, 3, 5 and 7 days. The earliest subculture time at which no growth is present is considered the endpoint and is recorded as the sterilization time. An aliquot of 0.2 ml of the diluted culture is transferred to 5 ml of buffer to simulate 0.2 ml in 5 ml of test solution. (a) Purity: A loopful of the inoculated buffer is streaked onto nutrient agar to check colony morphology and lack of contaminants. (b) Viability: A loopful of the inoculated buffer is subcultured to 5 ml of nutrient broth as in the screen and incubated at 37° C. for 24 hours. (c) Dilution of the Test Solution: A loopful of the test solution is transferred to a 5 ml tube of nutrient broth, and a loopful of the inoculated buffer is transferred to the same tube of broth. […] (d) Purity of Organisms in the Test Solution: After the 15 minute subculture, a loopful of the inoculated test solution is streaked onto nutrient agar to insure that contamination has not occurred during the screen. (e) lack of Bactericidal Activity of Buffers and Other Solvents: Before a buffer or other solvent is used as a diluent, it is screened against the five organisms to insure that the buffer or solvent has no antibacterial activity itself.

Staphylococcus aureus = test: Contact germicidal screen, Staphylococcus aureus ATCC No. 6538
Method: as §2

[1] = test system: Trychophyton mentagrophytes; test: Contact fungicidal screen, Trychophyton mentagrophytes; settings: 0.1M NaOAc pH 4.6
Microsporum canis = test: Contact fungicidal screen, Microsporum canis; settings: 0.1M NaOAc pH 4.6
Method: as §1

[2] = 10.0+ PPM, 0.1M NaOAc pH 4.6, screened simultaneously with four other compounds
[3] = 300 PPM with 50% Horse Serum, 0.1M NaOAc pH 4.6
[4] = 300 PPM with 50% Triton X100, 0.1M NaOAc pH 4.6
[5] = 308.0 PPM, Triton X100 (10% solution):pH 4.6 buffer 1:1
[6] = 308.0 PPM, horse serum:pH 4.6 buffer 1:1
[7] = 1000 PPM with 50% Horse Serum, 0.1M NaOAc pH 4.6
[8] = 1000.0 PPM, horse serum:pH 4.6 buffer 1:1
[9] = 1012.3 PPM, 0.1M NaH2PO4 pH 7.0

Compound: CC(C)(CCC(=O)O)N(Cl)Cl [(III), 4-Dichloroamino-4-methylvaleric acid]
- Sterilization Time (Aspergillus fumigatus; 10 PPM): 15 min
- Sterilization Time (Aspergillus fumigatus; 100 PPM): 15 min
- Sterilization Time (Aspergillus fumigatus; 1000 PPM): 10.0 min
- Sterilization Time (Bacillus subtilis; 9.6 PPM, 0.1M NaOAc pH 4.6): 2.5 min
- Sterilization Time (Bacillus subtilis; 9.7 PPM, 0.1M NaH2PO4 pH 7.0): 15 min
- Sterilization Time (Bacillus subtilis; [2]): 2.5 min
- Sterilization Time (summary) (Bacillus subtilis; 10 PPM, 0.1M NaOAc pH 4.6): 2.5 min
- Sterilization Time (summary) (Bacillus subtilis; 100 PPM, 0.1M NaOAc pH 4.6): 0.5 min
- Sterilization Time (Bacillus subtilis; 102.2 PPM, 0.1M NaOAc pH 4.6): 0.5 min
- Sterilization Time (Bacillus subtilis; 103.5 PPM, 0.1M NaH2PO4 pH 7.0): 10.0 min
- Sterilization Time (summary) (Bacillus subtilis; [3]): 2.5 min
- Sterilization Time (summary) (Bacillus subtilis; [4]): 0.5 min
- Sterilization Time (Bacillus subtilis; [5]): 0.5 min
- Sterilization Time (Bacillus subtilis; [6]): 2.5 min
- Sterilization Time (summary) (Bacillus subtilis; [7]): 0.5 min
- Sterilization Time (summary) (Bacillus subtilis; 1000 PPM, 0.1M NaOAc pH 4.6): 0.5 min
- Sterilization Time (Bacillus subtilis; [8]): 0.5 min
- Sterilization Time (Bacillus subtilis; 1007.7 PPM, 0.1M NaOAc pH 4.6): 0.5 min
- Sterilization Time (Bacillus subtilis; [9]): 2.5 min
- Sterilization Time (Staphylococcus aureus; 9.6 PPM, 0.1M NaOAc pH 4.6): 10.0 min
- Sterilization Time (Staphylococcus aureus; 9.7 PPM, 0.1M NaH2PO4 pH 7.0): 15 min
- Sterilization Time (Staphylococcus aureus; [2]): 5.0 min
- Sterilization Time (summary) (Staphylococcus aureus; 10 PPM, 0.1M NaOAc pH 4.6): 5.0 min
- Sterilization Time (summary) (Staphylococcus aureus; 100 PPM, 0.1M NaOAc pH 4.6): 2.5 min
- Sterilization Time (Staphylococcus aureus; 102.2 PPM, 0.1M NaOAc pH 4.6): 2.5 min
- Sterilization Time (Staphylococcus aureus; 103.5 PPM, 0.1M NaH2PO4 pH 7.0): 15 min
- Sterilization Time (summary) (Staphylococcus aureus; [3]): 5.0 min
- Sterilization Time (summary) (Staphylococcus aureus; [4]): 2.5 min
- Sterilization Time (Staphylococcus aureus; [5]): 2.5 min
- Sterilization Time (Staphylococcus aureus; [6]): 5.0 min
- Sterilization Time (summary) (Staphylococcus aureus; [7]): 0.5 min
- Sterilization Time (summary) (Staphylococcus aureus; 1000 PPM, 0.1M NaOAc pH 4.6): 0.5 min
- Sterilization Time (Staphylococcus aureus; [8]): 0.5 min
- Sterilization Time (Staphylococcus aureus; 1007.7 PPM, 0.1M NaOAc pH 4.6): 0.5 min
- Sterilization Time (Staphylococcus aureus; [9]): 5.0 min
- Sterilization Time ([1]; 10 PPM): 5.0 min
- Sterilization Time ([1]; 100 PPM): 0.5 min
- Sterilization Time ([1]; 1000 PPM): 0.5 min
- Sterilization Time (Microsporum canis; 10 PPM): 15 min
- Sterilization Time (Microsporum canis; 100 PPM): 5.0 min
- Sterilization Time (Microsporum canis; 1000 PPM): 0.5 min
